Residues, ends and D or L forms follow the SMILES beside them. *: point of attachment. FITC = O=C1OC2(c3ccc(O)cc3Oc3cc(O)ccc32)c2ccc(NC(=S)*)cc21
Biological target: T1, Impα(70–529)(W184R/W231R) (Mus musculus, UniProt P52293, W184R/W231R)
T1 construct: His tag; made in house; host or cells: E. coli BL21(DE3), pET30
Assay: Fluorescence polarization titration of FITC-labeled XRCC1 NLS peptides with major-site mutant Impα(70–529)(W184R/W231R)
Format: binding, murine
Details: relative to wild-type Impα(70–529)
Method: A His-tagged murine Importin α protein with the Importin β binding domain (IBB) deleted, which is identical to Impα(70–529) studied by Fontes et al.[30], was expressed in E. coli. […] The major binding pocket double mutant W184R/W231R was created using a Quikchange site-directed mutagenesis kit (Agilent).
Protein concentrations were determined by the Edelhoch procedure[59].
Apparent peptide dissociation constants were determined based on fluorescence polarization measurements using FITC-labeled peptides. Impα(70–529) was exchanged into FP buffer (20 mM Tris, pH 7.7, 125 mM NaCl, 1 mM EDTA, 2 mM tris(2-carboxyethyl)phosphine, 5% sucrose, 10 mM NaN3). […] 50 μL volumes of the binding reactions were pipetted into wells of a 96-well black flat bottomed plate and fluorescence polarization was read at room temperature with the POLARstar Omega microplate reader (BMG Labtech) using excitation at 485 nm and emission at 520 nm. […] The fluorescence polarization values generated by the experiments are arbitrary, so for easy comparisons among samples, the data were normalized to a 0–100 scale after curve-fitting. […]
Where Ycalc represents the fluorescence polarization value that is generated by the model. […]
The FITC tags were selected in an attempt to minimize possible non-specific interactions of the fluorescein with the Impα(70–529). […] Concentrations of unlabeled peptides were determined by UV absorbance[62].

Compound	binding affinity to Impα(70–529)(W184R/W231R), in words
CC(C)C[C@H](NC(=O)[C@H](CCCCN)NC(=O)[C@H](CCCNC(=N)N)NC(=O)[C@H](CCCCN)NC(=O)CNC(=O)CNC(=S)Nc1ccc2c(c1)C(=O)OC21c2ccc(O)cc2Oc2cc(O)ccc21)C(=O)O [Peptide M1] ({FITC}-GGKRKL-OH; C-terminus assumed)	essentially unaffected
CC(C)C[C@H](NC(=O)[C@H](CCCCN)NC(=O)[C@@H]1CCCN1C(=O)[C@H](CCCNC(=N)N)NC(=O)[C@H](CCCCN)NC(=O)[C@@H]1CCCN1C(=O)[C@@H](NC(=O)[C@@H](N)CO)C(C)C)C(=O)N1CCC[C@H]1C(=O)NCC(=O)N[C@@H](CCCCNC(=S)Nc1ccc2c(c1)C(=O)OC21c2ccc(O)cc2Oc2cc(O)ccc21)C(=O)O [Peptide M2] (H-SVPKRPKLPGK(FITC)-OH; N-terminus and C-terminus assumed)	interacts only weakly

Reference: PMC4548243, “Nuclear Localization of the DNA Repair Scaffold XRCC1: Uncovering the Functional Role of a Bipartite NLS” (Scientific Reports, 2015)
